In publication PMC12040169 (PLOS Biology, 2025) one finds viability data, which are given here for 58 molecules.

The data set is described as follows: in vitro. As to conditions: human, hela cells, % viability.

In general, viability refers to a read-out of living cells in per cent, often relative to untreated cells. `OC/C=C/c1cnc2ccccc2c1` [CBK001749]: the viability at 28.5 h, 10 µM is 119%.
Take `CN1CCC(N(C)C(=O)Nc2ccc3[nH]ccc3c2)C1` (stereo not shown) [CBK156006]: the viability at 28.5 h, 10 µM was found to be 92.2%.
For the molecule `CN(c1ccc(C(O)(C(F)(F)F)C(F)(F)F)cc1)S(=O)(=O)c1cccs1` [CBK067061], the viability at 28.5 h, 10 µM was determined as 107%.
The same measure, in the same setting: in the case of `CSc1ccc(-n2ncc(-c3ccc(Cl)cc3)n2)cc1` [CBK112782] it was 84%.
On the same count and under the same terms, in the case of `Cc1cc(N)n(CC(=O)NCCCn2ccnc2C(C)C)n1` [CBK306632] it was 89.3%.
On to `CCOC(=O)c1c(-c2ccccc2)csc1NS(=O)(=O)c1ccc(C)cc1` [CBK015841], for which the viability at 28.5 h, 10 µM is 95.1%.
For the molecule `COC(=O)c1cc(CN2CCCN(S(=O)(=O)c3ccc(C(=O)c4ccccc4)cc3)CC2)cn1C` [CBK062770], the viability at 28.5 h, 10 µM is 97.2%.
`O=C(O)c1ccc(N2C(=O)CC(N3CCN(c4cccc(C(F)(F)F)c4)CC3)C2=O)cc1` (stereo not shown) [CBK287228]: the viability at 28.5 h, 10 µM is 93.3%.
In the case of `CN(C)c1cccc(-c2cncc(NCc3ccco3)n2)c1` [CBK065555], the viability at 28.5 h, 10 µM was found to be 106%.
With `Cc1nn(CC(=O)NC2CCCC2)c(=O)c2cc3sccc3n12` [CBK284023], the viability at 28.5 h, 10 µM was 104%.
The same measure, in the same setting: in the case of `c1csc(CNc2nccnc2-c2ccoc2)c1` [CBK036599] it was 107%; in that of `O=C(Nc1nnc[nH]1)c1cccnc1Cl` [CBK026067], 113%; in that of `Cc1ccc(N(C(=O)COc2ccc(C(C)(C)C)cc2)C2C=CS(=O)(=O)C2)cc1` (stereo not shown) [CBK265811], 105%.
On the same count and under the same terms, with `Cc1ccccc1Oc1ccccc1NC(=O)CN1CCCCC1` [CBK015781C] the figure was 98.3%; with `Cc1cc(C)c2nc(-c3ccccn3)cc(C(=O)Nc3ccc(S(=O)(=O)Nc4cc(C)on4)cc3)c2c1` [CBK267779], 105%.
On the same count and under the same terms, in the case of `c1coc(CNc2cncc(-c3cccs3)n2)c1` [CBK065630] it was 96.6%.
On to `O=c1[nH]c(=O)c2cc(S(=O)(=O)Nc3ccc(N4CCCCCC4)cc3)ccc2[nH]1` [CBK286361], for which the viability at 28.5 h, 10 µM came out at 81.4%.
Same read-out and setting: with `CCOC(=O)c1ccc(/N=C2/NC(=O)/C(=C\c3ccccc3OCC(=O)O)S2)cc1` [CBK265658] the figure was 101%; with `CS(=O)(=O)N1C2CCC(C2)[C@H]1COc1ccc(F)cc1` (stereo partly shown) [CBK285279], 108%.
`CCCc1ccc(S(=O)(=O)Nc2c(C(=O)OC)sc3ncccc23)cc1` [CBK050653]: the viability at 28.5 h, 10 µM came out at 87.2%.
Take `Brc1cccc(CSc2nnc(COc3ccccc3)n2Cc2ccccc2)c1` [CBK268250]: the viability at 28.5 h, 10 µM turned out to be 113%.
In the case of `O=C(NC1CC1)c1nn(-c2ncccn2)c2ccccc12` [CBK048508], the viability at 28.5 h, 10 µM came out at 88%.
Still for that read-out and setting: in the case of `O=C(O)c1cc(S(=O)(=O)Nc2ccc3cc(Br)cnc3n2)c(F)cc1Cl` [CBK073898] it was 92.2%.
With `O=C(NCc1ccccc1)c1ccncc1` [CBK200189], the viability at 28.5 h, 10 µM was found to be 108%.
On the same count and under the same terms, with `NC(=O)CN1CCN(c2nccnc2OCc2ccc(Cl)c(Cl)c2)CC1` [CBK083079T] the figure was 111%; with `Cn1ccnc1C1(O)CCN(C(=O)Cc2ccccc2F)CC1` [CBK283585], 97.6%; with `OC1(Cn2cnc3ccccc32)CCN(CCc2ccccc2)CC1` [CBK284789], 100%.
On to `CCC(CN1CCCC1)n1cncc1-c1cn(C)nc1C` (stereo not shown) [CBK281459], for which the viability at 28.5 h, 10 µM was 102%.
Turning to `CSc1nsc(SCC(=O)Nc2ccc(OC(C)=O)cc2)n1` [CBK268948], the viability at 28.5 h, 10 µM amounted to 88.1%.
Same read-out and setting: in the case of `CCn1c2cc(C)oc2c2cn[nH]c(=O)c21` [CBK284230] it was 76.1%; in that of `Cc1cc(C)c(C)c(S(=O)(=O)NCCN2CCCCC2CO)c1C` (stereo not shown) [CBK307333], 90.4%.
`COc1cc(-c2cncc(N(C)CCN(C)C)n2)cc(OC)c1OC` [CBK065312]: the viability at 28.5 h, 10 µM was determined as 90.5%.
Consider `Cc1n[nH]c(O)c1C(c1ccc(Br)o1)c1c(C)n[nH]c1O` [CBK026150], for which the viability at 28.5 h, 10 µM was 102%.
Still for that read-out and setting: in the case of `NS(=O)(=O)c1ccc(/N=C/c2ccc(OCc3ccccc3)cc2)cc1` [CBK261585] it was 98.3%.
For `CCc1ccc(N2C(=O)/C(=C/c3ccc(OCC(=O)O)c(Br)c3)C(=O)NC2=S)cc1` [CBK263325], the viability at 28.5 h, 10 µM (bulk resorufin, single well) was 96.4%.
`O=C(NCCN1CCc2ccccc2C1)C1CCCCC1` [CBK305049]: the viability at 28.5 h, 10 µM is 115%.
On to `O=C(NCc1ccccn1)c1nn[nH]c1Nc1cccc(Cl)c1` [CBK288030], for which the viability at 28.5 h, 10 µM is 79.4%.
`O=C(O)Cc1ccc(NS(=O)(=O)c2ccc(F)cc2)cc1` [CBK269981]: the viability at 28.5 h, 10 µM was found to be 94.2%.
The same measure, in the same setting: in the case of `Cc1ccc([N+](=O)[O-])cc1NS(=O)(=O)Cc1ccc(Cl)cc1` [CBK111359] it was 71.8%; in that of `O=C(N[C@H]1CCN2C(=O)c3cc(-c4ccccc4F)ccc3NC(=O)[C@@H]2C1)c1cnccn1` [CBK289558], 118%; in that of `Cc1nc(-c2cccnc2)[nH]c(=O)c1CCC(=O)N1CCNC(C)C1` (stereo not shown) [CBK304163], 102%.
As for `Cc1nc(CN2[C@H]3CCCCC(=O)N[C@@]3(C)C[C@H]2c2cccc(C(F)(F)F)c2)cs1` [CBK285701], the viability at 28.5 h, 10 µM came out at 91.1%.
The same measure, in the same setting: in the case of `c1ccc(-c2nc(C3CCNCC3)n3ccncc23)cc1` [CBK035434] it was 100%; in that of `CCOc1ccc(-n2c(SCc3nc4ccccc4[nH]3)nc3sc4c(c3c2=O)CCCC4)cc1` [CBK264581], 103%; in that of `CCn1c(SCC(=O)N2c3ccccc3Sc3ccccc32)nnc1C(C)Oc1ccccc1` (stereo not shown) [CBK266290], 105%.
For `c1nc(OCCN2CCOCC2)cc(N2CCCNCC2)n1` [CBK085466], the viability at 28.5 h, 10 µM came to 86.2%.
On to `CCn1cc(CN(Cc2ccccc2)CC2CCCO2)c(C)n1` (stereo not shown) [CBK283265], for which the viability at 28.5 h, 10 µM came out at 93.7%.
As to `COc1ccc(Cl)cc1S(=O)(=O)N1CCC(C(N)=O)(N2CCCCC2)CC1` [CBK269571], the viability at 28.5 h, 10 µM came out at 97.9%.
Regarding `CS(=O)(=O)N1CCCCCC1c1cc(-c2cccs2)on1` (stereo not shown) [CBK284670], the viability at 28.5 h, 10 µM was found to be 85.5%.
Regarding `CC1(C)C(N(O)C(=O)Nc2cccc3ccccc23)N(c2cccc3ccccc23)C(=O)N1CC(=O)NN` (stereo not shown) [CBK261004], the viability at 28.5 h, 10 µM is 88.2%.
As for `Cc1c(C(=O)Nc2ccncc2)nnn1-c1cccc(C(F)(F)F)c1` [CBK107390], the viability at 28.5 h, 10 µM worked out at 102%.
Consider `O=C(Cc1ccccc1)Nc1ncc(Cc2ccccc2)s1` [CBK287322], for which the viability at 28.5 h, 10 µM was 95.6%.
Take `CCCCOc1nccnc1-c1ccc(C)c(C)c1` [CBK106870]: the viability at 28.5 h, 10 µM was 95.1%.
The same measure, in the same setting: with `CC1CCN(Cc2ccc(-c3cn(CC(=O)NCc4ccc(Br)cc4F)nn3)cc2)CC1` [CBK165756C] the figure was 91.1%.
Take `Cc1cnc2c(c1)cc(C1CCOCC1)n2CC(=O)N(C)C` [CBK284754]: the viability at 28.5 h, 10 µM turned out to be 102%.
As for `CCOC(=O)c1cnn(C2CCCN(Cc3cccn3C)C2)c1` (stereo not shown) [CBK305114], the viability at 28.5 h, 10 µM came out at 84.3%.
Take `COCCNC(=O)c1cc(C2CC2)nc2c1cnn2C(C)C` [CBK306099]: the viability at 28.5 h, 10 µM was determined as 101%.
Same read-out and setting: with `CCOC(=O)c1sc2nc(N3CCOCC3)c3c(c2c1N)CCCC3` [CBK131870] the figure was 100%.
